The values below come from patent publication US8143290B2, “Chemical compounds 572” (AstraZeneca AB, priority 2006, dated 2012).

pIC50: −log10 of the molar value.

As usually defined, the pIC50 is −log10 of the IC50, conventionally taken in molar units.

The assay has as its target T1, recombinant human GR (Homo sapiens, UniProt P04150).
T1 construct: purchased Panvera/Invitrogen P2812 (kit P2893)
T1 sequence (P04150 1-777): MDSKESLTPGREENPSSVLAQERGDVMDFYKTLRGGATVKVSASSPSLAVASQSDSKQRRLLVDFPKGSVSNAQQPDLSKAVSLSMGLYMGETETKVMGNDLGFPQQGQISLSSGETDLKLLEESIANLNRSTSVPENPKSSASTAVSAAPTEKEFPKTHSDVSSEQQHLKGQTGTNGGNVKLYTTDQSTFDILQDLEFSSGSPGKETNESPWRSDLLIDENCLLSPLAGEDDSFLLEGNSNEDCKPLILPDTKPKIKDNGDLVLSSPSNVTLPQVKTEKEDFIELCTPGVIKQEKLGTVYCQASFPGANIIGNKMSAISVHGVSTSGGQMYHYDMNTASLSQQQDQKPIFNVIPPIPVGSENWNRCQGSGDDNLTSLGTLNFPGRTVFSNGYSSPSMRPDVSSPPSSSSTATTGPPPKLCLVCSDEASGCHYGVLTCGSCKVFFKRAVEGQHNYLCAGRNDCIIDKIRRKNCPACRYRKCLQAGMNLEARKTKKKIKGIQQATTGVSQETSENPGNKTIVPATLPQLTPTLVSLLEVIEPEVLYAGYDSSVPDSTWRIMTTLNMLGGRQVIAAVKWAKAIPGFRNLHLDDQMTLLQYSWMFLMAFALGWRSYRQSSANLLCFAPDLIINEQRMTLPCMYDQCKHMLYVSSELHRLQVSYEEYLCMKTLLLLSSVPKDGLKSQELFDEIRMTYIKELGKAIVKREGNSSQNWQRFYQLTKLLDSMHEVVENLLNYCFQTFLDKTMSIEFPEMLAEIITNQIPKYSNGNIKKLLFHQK
The experiment in a line: Human Glucocorticoid Receptor (GR) Assay, fluorescence polarization. It counts as binding. Conditions: GS Red tracer, incubated 2 h at r.t., XLfit model 205, read-out: GRhuFL_FP_v2 Mean IC50. As to the method:
Human Glucocorticoid Receptor (GR) Assay
The assay is based on a commercial kit from Panvera/Invitrogen (Part number P2893). The assay technology is fluorescence polarization. […] The GR and Stabilizing Peptide reagents are stored at −70° C. while the GS Red is stored at −20° C. Also included in the kit are 1M DTT (Panvera, Part number P2325, stored at −20° C.) and GR Screening buffer 10× (Panvera, Part number P2814, stored at −70° C. initially but once thawed stored at r.t.). Avoid repeated freeze/thaws for all reagents. The GR Screening buffer 10× comprises 100 mM potassium phosphate, 200 mM sodium molybdate, 1 mM EDTA and 20% DMSO.
0% control was 100% DMSO and 100% control was […] Dexamethasone. Background solution (8 μL; assay buffer 10×, Stabilizing Peptide, DTT and ice cold MQ water) was added to the background wells. GS Red solution (7 μL; assay buffer 10×, Stabilizing Peptide, DTT, GS Red and ice cold water) was added to all wells except background wells. GR solution (7 μL; assay buffer 10×, Stabilizing Peptide, DTT, GR and ice cold water) was added to all wells. The plate was sealed and incubated in a dark at r.t. for 2 h.
(In general: Fluorescence polarisation rises when a labelled molecule tumbles more slowly, as on binding a larger partner.)

`COc1cccc([C@@H](Oc2ccc3c(cnn3-c3ccc(F)cc3)c2)[C@H](C)NC(=O)CO)c1` [Example 121, N-[(1R,2S)-1-[1-(4-fluorophenyl)indazol-5-yl]oxy-1-(3-methoxyphenyl)propan-2-yl]-2-hydroxy-acetamide]: the pIC50 is 8.55.

For the molecule `COc1cccc([C@@H](Oc2ccc3c(cnn3-c3ccc(F)cc3)c2)[C@H](C)NC(=O)c2nc(C)cs2)c1` [Example 290, N-[(1R,2S)-1-[1-(4-fluorophenyl)indazol-5-yl]oxy-1-(3-methoxyphenyl)propan-2-yl]-4-methyl-1,3-thiazole-2-carboxamide], the pIC50 was 8.51.

As for `COc1cccc([C@@H](Oc2ccc3c(cnn3-c3ccc(F)cc3)c2)[C@H](C)NC(=O)c2ccc(Br)o2)c1` [Example 276, 5-bromo-N-[(1R,2S)-1-[1-(4-fluorophenyl)indazol-5-yl]oxy-1-(3-methoxyphenyl)propan-2-yl]furan-2-carboxamide], the pIC50 is 7.92.

Turning to `COc1cccc([C@@H](Oc2ccc3c(cnn3-c3ccc(F)cc3)c2)[C@H](C)NC(=O)CNC(N)=O)c1` [Example 270, 2-(carbamoylamino)-N-[(1R,2S)-1-[1-(4-fluorophenyl)indazol-5-yl]oxy-1-(3-methoxyphenyl)propan-2-yl]acetamide], the pIC50 is 8.09.

Turning to `Cc1ccc(C)c([C@@H](Oc2ccc3c(cnn3-c3ccc(F)cc3)c2)[C@H](C)NC(=O)c2ncc(C)s2)c1` [Example 196, N-[(1R,2S)-1-(2,5-dimethylphenyl)-1-[1-(4-fluorophenyl)indazol-5-yl]oxy-propan-2-yl]-5-methyl-1,3-thiazole-2-carboxamide], the pIC50 is 8.21.

As for `Cc1ccc([C@@H](Oc2ccc3c(cnn3-c3ccc(F)cc3)c2)[C@H](C)NC(=O)C(C)(C)C)cc1F` [Example 173, N-[(1R,2S)-1-(3-fluoro-4-methyl-phenyl)-1-[1-(4-fluorophenyl)indazol-5-yl]oxy-propan-2-yl]-2,2-dimethyl-propanamide], the pIC50 is 8.34.

Consider `COc1cccc([C@@H](Oc2ccc3c(cnn3-c3ccc(F)cc3)c2)[C@H](C)NC(=O)c2nc3ccccc3[nH]2)c1` [Example 294, N-[(1R,2S)-1-[1-(4-fluorophenyl)indazol-5-yl]oxy-1-(3-methoxyphenyl)propan-2-yl]-1H-benzoimidazole-2-carboxamide], for which the pIC50 is 8.39.

With `COc1ccc(F)cc1[C@@H](Oc1ccc2c(cnn2-c2ccc(F)cc2)c1)[C@H](C)NC(=O)C(C)(F)F` [Example 235, 2,2-difluoro-N-[(1R,2S)-1-(5-fluoro-2-methoxy-phenyl)-1-[1-(4-fluorophenyl)indazol-5-yl]oxy-propan-2-yl]propanamide], the negative-log IC50 (pIC50) is 8.27.

Regarding `COc1cccc([C@@H](Oc2ccc3c(cnn3-c3ccc(F)cc3)c2)[C@H](C)NC(=O)C(=O)NC(C)(C)C)c1` [Example 82, N-[(1R,2S)-1-[1-(4-Fluorophenyl)indazol-5-yl]oxy-1-(3-methoxyphenyl)propan-2-yl]-N′-tert-butyl-oxamide], the pIC50 was 8.28.

On to `CSc1ccc([C@@H](Oc2ccc3c(cnn3-c3ccc(F)cc3)c2)[C@H](C)NC(=O)CO)cc1` [Example 11, N-[(1R,2S)-1-[1-(4-fluorophenyl)indazol-5-yl]oxy-1-(4-methylsulfanylphenyl)propan-2-yl]-2-hydroxy-acetamide], for which the pIC50 is 8.68.

For `COCC(=O)N[C@@H](C)[C@H](Oc1ccc2c(cnn2-c2ccc(F)cc2)c1)c1ccc(OC)c(F)c1` [Example 262, N-[(1R,2S)-1-(3-fluoro-4-methoxy-phenyl)-1-[1-(4-fluorophenyl)indazol-5-yl]oxy-propan-2-yl]-2-methoxy-acetamide], the pIC50 was 8.35.

For `COc1cccc([C@@H](Oc2ccc3c(cnn3-c3ccc(F)cc3)c2)[C@H](C)NC(=O)CF)c1` [Example 53, 2-Fluoro-N-[(1R,2S)-1-[1-(4-fluorophenyl)indazol-5-yl]oxy-1-(3-methoxyphenyl)propan-2-yl]acetamide], the pIC50 is 8.46.
